The term Kd denotes the equilibrium constant for the complex coming apart.

This is an account of results in patent publication US10976310B2, “Ligand identification by co-fractionation” (MAX-PLANCK-GESELLSCHAFT ZUR FÖRDERUNG DER WISSENSCHAFTEN …, priority 2016, dated 2021).

Read-outs that look alike come from different tables or passages of the source. Peptide text beside a SMILES is read from it.

The target of experiment [1] is T1, 3-methyl-2 oxobutanoate hydroxymethyl-transferase 1 (KPHMT1) (Arabidopsis thaliana, UniProt O82357).
T1 sequence (O82357 49-347): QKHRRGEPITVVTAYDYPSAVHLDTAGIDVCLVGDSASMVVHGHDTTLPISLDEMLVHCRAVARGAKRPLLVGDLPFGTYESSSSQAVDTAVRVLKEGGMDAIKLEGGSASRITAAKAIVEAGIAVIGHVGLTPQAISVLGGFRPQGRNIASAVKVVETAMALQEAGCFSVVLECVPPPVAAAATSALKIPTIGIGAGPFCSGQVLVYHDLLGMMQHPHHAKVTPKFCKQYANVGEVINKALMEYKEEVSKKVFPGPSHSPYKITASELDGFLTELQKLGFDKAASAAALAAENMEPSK
In words: Microscale thermophoresis (MST) assay, Panthotenate-KPHMT1 interaction. It counts as binding. Conditions: mean±SD, n=3. As for the experimental part: B) Panthotenate-KPHMT1 interaction was tested by Microscale thermophoresis (MST) assay. […] Data are mean±SD, n=3.
(In general: MST reads how a fluorescent partner responds to local heating, with and without ligand.)

A further experiment has as its target T2, FBA6 (Arabidopsis thaliana, UniProt Q9SJQ9).
T2 construct: made in house; host or cells: E. coli
T2 sequence (Q9SJQ9 1-358): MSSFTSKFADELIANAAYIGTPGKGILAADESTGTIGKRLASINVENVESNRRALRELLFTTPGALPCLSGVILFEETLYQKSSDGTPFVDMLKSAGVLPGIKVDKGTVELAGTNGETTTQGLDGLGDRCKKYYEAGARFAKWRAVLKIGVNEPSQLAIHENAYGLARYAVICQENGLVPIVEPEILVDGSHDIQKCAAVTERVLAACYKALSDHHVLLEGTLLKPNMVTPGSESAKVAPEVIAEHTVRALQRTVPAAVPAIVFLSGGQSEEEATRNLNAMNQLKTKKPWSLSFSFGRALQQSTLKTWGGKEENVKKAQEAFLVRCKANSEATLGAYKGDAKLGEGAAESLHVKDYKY
In words: Microscale thermophoresis (MST) binding to FBA6 expressed and purified from E. coli. The text has this:
FBA6 protein was expressed and purified from E. coli. MST uses the intristic tendency of all the biological molecules to move in the temperature gradient. This movement is dependent on the molecule size, charge and hydration shell. Complex formation affects at least one of the three parameters changing the movement and indicating binding event. […] The results obtained point to both strong and specific interaction.

A further experiment addresses T3, Rbp47b (Arabidopsis thaliana, UniProt Q0WW84).
T3 sequence (Q0WW84 1-435): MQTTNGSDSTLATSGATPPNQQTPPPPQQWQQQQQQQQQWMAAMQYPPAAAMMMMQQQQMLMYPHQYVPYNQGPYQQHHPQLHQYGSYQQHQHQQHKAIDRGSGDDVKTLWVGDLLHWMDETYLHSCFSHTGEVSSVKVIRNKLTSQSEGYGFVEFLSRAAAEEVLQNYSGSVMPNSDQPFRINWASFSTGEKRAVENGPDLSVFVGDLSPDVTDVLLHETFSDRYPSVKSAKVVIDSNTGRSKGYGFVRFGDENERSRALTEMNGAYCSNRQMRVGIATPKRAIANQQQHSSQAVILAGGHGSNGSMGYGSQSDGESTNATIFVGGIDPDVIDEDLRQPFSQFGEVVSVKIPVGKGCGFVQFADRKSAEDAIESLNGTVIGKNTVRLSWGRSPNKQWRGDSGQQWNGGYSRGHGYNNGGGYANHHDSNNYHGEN
Description: MST measurement of ligand binding to recombinant Rbp47b. From the text: We therefore attempted to determine the in vitro binding affinity biophysically using micro-scale thermophoresis (MST) (Jerabek-Willemsen et al. (2011) Molecular interaction studies using microscale thermophoresis. Assay Drug Dev Technol 9: 342-353). MST exploits the effect of size, charge, and hydration shell on the movement of molecules in a temperature gradient. Complex formation resulting in alteration of at least one of the three parameters leads to differential movement, from which the binding affinity can be determined. For the purpose of the MST experiment, Rbp47b was expressed in and purified from E. coli. […] The measured Kd value also corresponds to the ˜20 μM concentration of 2′,3′-cAMP measured in the native Arabidopsis lysate (FIG. 11B).
TIA1 protein was purchased from Origene (Herford, Germany). Rbp47b was cloned as a C-terminal GFP fusion (to increase protein solubility) into the E. coli expression vector pDEST14 containing His6-tag at the N-terminal of the Gateway (Karlsruhe, Germany) cassette. […]
Next day, cells were disrupted with an Avestin (Mannheim, Germany) EmulsiFlex C3 homogenizer and the protein was purified using imidazole-gradient purification in Ni-NTA agarose (Qiagen 34080, Hilden, Germany). […] Protein purity was assessed by SDS-PAGE and protein identification was done using western blot using anti-His6 antibodies. […]

The target in the next experiment is T4, Rbp47b-TAP protein (Arabidopsis thaliana, UniProt Q0WW84).
T4 construct: expressed in transfected cells; host or cells: Arabidopsis cell suspension culture, Agrobacterium-transformed
T4 sequence (Q0WW84 1-435): T3 sequence (Q0WW84 1-435)
In words: Cellular thermal shift assay (CETSA) in native Arabidopsis lysate. It counts as binding. Conditions: analogous experiment, native protein lysate. As for the experimental part:
To this end we set out to identify the binding protein partners of 2′,3′-cAMP by applying affinity purification (AP) using agarose beads, with 2′,3′-cAMP linked via the NH2 group of the purine ring. After incubation of the beads with total soluble-protein extracts from A. thaliana cell suspension cultures (cf. Materials and Methods) sequential washings with ADP, GDP, 5′-AMP, and finally 2′,3′-cAMP were performed, and the proteins eluting in the different washings were analyzed by LC-MS/MS proteomics. Proteins eluting from the agarose beads exclusively with 2′,3′-cAMP but absent in any of the other eluents (ADP, GDP, or 5′-AMP; FIG. 10A) were defined as 2′,3′-cAMP-binding. Applying this stringent criterion only one protein remained: the polyadenylate-binding protein Rbp47b. We reasoned that the putative formation of Rbp47b-2′,3′-cAMP complexes in vivo should be reflected by largely overlapping elution profiles of the two components in a size-exclusion experiment (SEC), as was indeed the case (FIG. 10B). To obtain further and independent evidence for the formation of a complex between Rbp47b and 2′,3′-cAMP, we performed a cellular thermal shift assay (CETSA) (Franken et al. (2015) Thermal proteome profiling for unbiased identification of direct and indirect drug targets using multiplexed quantitative mass spectrometry. Nat Protoc 10: 1567-1593). CESTA is a method used in the drug research to verify ligand-receptor binding in the native cellular lysate, based on the observation that presence of the ligand changes thermal stability of the protein receptor. Herein, we adapted the protocol to be suitable for the plant material and an endogenous […] metabolite. We used Arabidopsis cells expressing a tagged version of the Rbp47b, so that Rbp47b level could be easily detected with the anti-tag antibody. […] Taken together, three independent experimental approaches (AP, SEC, and CETSA) provide evidence for the binding of 2′,3′-cAMP to Rbp47b in the native Arabidopsis lysate. […]

A further experiment has as its target T5, TIA1 (Homo sapiens, UniProt P31483).
T5 construct: purchased Origene (Herford, Germany)
T5 sequence (P31483 1-386): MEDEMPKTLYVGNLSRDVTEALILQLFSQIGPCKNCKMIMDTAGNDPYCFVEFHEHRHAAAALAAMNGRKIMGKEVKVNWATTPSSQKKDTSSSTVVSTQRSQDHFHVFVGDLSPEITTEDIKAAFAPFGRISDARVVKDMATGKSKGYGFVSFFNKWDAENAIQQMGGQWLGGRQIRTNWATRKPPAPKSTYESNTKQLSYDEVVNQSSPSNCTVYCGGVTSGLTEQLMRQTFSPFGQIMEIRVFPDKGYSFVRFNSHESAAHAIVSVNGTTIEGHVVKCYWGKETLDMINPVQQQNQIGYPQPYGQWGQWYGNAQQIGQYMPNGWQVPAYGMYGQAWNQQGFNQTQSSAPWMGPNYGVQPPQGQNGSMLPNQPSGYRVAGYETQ
In words: MST measurement of ligand binding to recombinant TIA1. As for the experimental part: Expecting such a basic role of 2′,3′-cAMP to be conserved, we performed similar analysis with TIA1, the human functional homolog of Rbp47b. TIA1 was labeled and its interaction with 2′,3′-cAMP was determined using MST.
TIA1 protein was purchased from Origene (Herford, Germany). Rbp47b was cloned as a C-terminal GFP fusion (to increase protein solubility) into the E. coli expression vector pDEST14 containing His6-tag at the N-terminal of the Gateway (Karlsruhe, Germany) cassette. Rosetta cells expressing His6-Rbp47b-GFP were grown at 28° C. overnight and next day were moved to Terrific Broth medium supplied with 1% sucrose and relevant antibiotics. Cultures at OD 0.4 were induced by addition of 0.1 mM IPTG and transferred to 16° C. for overnight incubation.
MST measurements were performed using a Monolith NT.115 instrument (NanoTemper, München, Germany). Capillaries were loaded into the instrument as sets of 13-16 point ligand titrations. Proteins (Rb47b and TIA1) were labeled in phosphate buffer (PBS) using Monolith™ protein labeling kit RED-NHS (amine reactive; MO-L001) according to the manufacturers instruction. Excitation was optimized by varying the LED power to yield emission intensities above 200 AU, corresponding to 10-50 nM labeled protein. Monolith power was set to 60%. Ligands [2′,3′-cAMP (Sigma A9376)] and [3′,5′-cAMP (Sigma A6885)] were dissolved in PBS. […]

In experiment [2] the target is T6, Methylthioribose-1-phosphate isomerase (MTR-1-P) (Arabidopsis thaliana, UniProt Q9ZUG4).
T6 sequence (Q9ZUG4 1-374): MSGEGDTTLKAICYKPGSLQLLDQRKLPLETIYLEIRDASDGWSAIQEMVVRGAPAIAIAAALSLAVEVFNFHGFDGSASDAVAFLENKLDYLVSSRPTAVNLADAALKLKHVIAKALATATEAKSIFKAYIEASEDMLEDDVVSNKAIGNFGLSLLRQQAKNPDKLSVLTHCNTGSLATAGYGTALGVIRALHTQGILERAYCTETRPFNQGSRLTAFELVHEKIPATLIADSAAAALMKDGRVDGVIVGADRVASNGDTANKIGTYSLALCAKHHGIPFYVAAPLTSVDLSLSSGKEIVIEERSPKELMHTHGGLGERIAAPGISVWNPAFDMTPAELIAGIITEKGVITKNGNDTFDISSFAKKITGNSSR
In words: Microscale thermophoresis (MST) assay, MTA-MTR-1-P interaction. Conditions: mean±SD, n=3. It counts as binding.

Experiment [3] deals with T7, gibberellin receptor GID1 (Oryza sativa subsp. japonica, UniProt Q6L545).
T7 sequence (Q6L545 1-354): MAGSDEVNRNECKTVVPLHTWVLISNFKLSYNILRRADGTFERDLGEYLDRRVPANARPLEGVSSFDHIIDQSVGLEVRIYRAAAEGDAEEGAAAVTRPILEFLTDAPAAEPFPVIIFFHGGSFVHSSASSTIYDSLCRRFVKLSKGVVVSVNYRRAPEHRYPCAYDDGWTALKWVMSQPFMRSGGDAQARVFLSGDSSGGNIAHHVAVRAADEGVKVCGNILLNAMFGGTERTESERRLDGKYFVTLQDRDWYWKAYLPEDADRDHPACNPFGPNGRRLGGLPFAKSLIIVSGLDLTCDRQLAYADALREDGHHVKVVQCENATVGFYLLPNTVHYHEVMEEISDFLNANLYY
Conditions: Ueguchi-Tanaka et al. (2005); read-out: Kd of binding to GID1; cited from earlier work.

In the case of `CC(C)(CO)[C@@H](O)C(=O)NCCC(=O)O` [Panthotenate, Pantothenic acid], binding in experiment [1] was characterised by a dissociation constant (Kd) of 367000 nM.
For the molecule `O=C(O)CNC(=O)[C@@H]1CCCN1` [Pro-Gly] (H-Pro-Gly-OH), the “binding to FBA6 (in words)” value on FBA6 (MST) is “not”.
For the molecule `Nc1ncnc2c1ncn2[C@@H]1O[C@@H]2COP(=O)(O)O[C@H]2[C@H]1O` [3′,5′-cAMP, reference compound], the “binding to Rbp47b (in words)” value on Rbp47b is listed as “did not observe any binding”. Further, the “effect on thermal stability of Rbp47b (in words)” value on Rbp47b-TAP protein is “No such effect was observed”. The “binding to TIA1 (in words)” value at TIA1 is “not”.
For the molecule `NCC(=O)N1CCC[C@H]1C(=O)O` [Gly-Pro, L-Gly-L-Pro] (H-Gly-Pro-OH), the Kd on FBA6 was roughly 200 nM.
Take dihydroxyacetone phosphate [DHAP]: the Kd at FBA6 (MST, FBA6 purified from E. coli, read-out: Kd of binding to FBA6) is roughly 200 nM.
Take `CSC[C@H]1O[C@@H](n2cnc3c(N)ncnc32)[C@H](O)[C@@H]1O` [MTA, Methylthioadenosine]: in experiment [2], the Kd came to 2700 nM.
As for `CC1C[C@]23C[C@H]1CCC2[C@]12CC[C@H](O)[C@](C)(C(=O)O1)[C@H]2[C@@H]3C(=O)O` (stereo partly drawn) [16,17-dihydro-GA4], the Kd in experiment [3] was 1400 nM.
